Measured values from article PMC7353089, “The Hepatotoxicity of Alantolactone and Germacrone: Their Influence on Cholesterol and Lipid Metabolism in Differentiated HepaRG Cells” (Nutrients, 2020).
Entries after “also recorded” stand apart in the source; their conditions may differ. Read-outs that look alike come from different tables or passages of the source.

Legend:
p-STAT3(Y705) = test: Western blot protein level in dHepaRG cells; assay type: cell-based, human; conditions: for phosphorylated p-STAT3(Y705) protein amount: 12-h exposure
Experimental: (§1) All the treatments were performed in triplicates. Protein concentration was measured using the bicinchoninic acid (BCA) protein assay (Sigma Aldrich, Prague, Czech Republic) according to the manufacturer’s instructions. The proteins were loaded onto a 10% sodium dodecyl sulfate (SDS; w/v)–polyacrylamide gel (with 4% stacking gel) and separated by SDS-PAGE electrophoresis. The proteins were transferred onto a nitrocellulose membrane using wet blot (100 V, 90 min). The membrane blocking was performed in a 5% non-fat dry milk/TRIS-buffered saline-Tween-20 (TBS-T) solution at room temperature for 2 h. Incubation with primary antibodies was accomplished overnight at 10 °C. β-actin was used as housekeeping protein (the list of primary antibodies in Table S2). Afterwards, the membrane was washed with 0.05% TBS-T solution for 6 × 5 min, incubated with respective secondary antibodies conjugated with horseradish peroxidase (bovine anti-rabbit (sc2370, Santa Cruz Biotechnology, Santa Cruz, CA, USA) at room temperature for 1.5 h, and rinsed with TBS-T solution for 6 × 5 min. Visualization of protein bands was carried out using a chemiluminescence kit (GE Healthcare, Buckinghamshire, UK).

SREBP-2 (F) = test: Western blot protein level in dHepaRG cells; assay type: cell-based, human; conditions: single exposure
Experimental: as §1

RIP1 = test: Western blot protein level in dHepaRG cells; assay type: cell-based, human
Experimental: as §1

ICAM-1 = test: Western blot protein level in dHepaRG cells; assay type: cell-based, human
Experimental: as §1

NF-κB = test: Western blot protein level in dHepaRG cells; assay type: cell-based, human
Experimental: as §1

ICAM-1 mRNA = test: RT-qPCR mRNA expression in dHepaRG cells; assay type: cell-based, human; conditions: the highest concentration
Experimental: (§3) Three concentrations were selected for each compound (non-toxic, non-toxic/slightly toxic and toxic). […] The expression changes of genes and proteins related to cholesterol metabolism were measured in both single and multiple exposure experiments.
(§4) All treatments were performed in triplicates and every experiment was performed three times. The cells were washed twice with ice cold phosphate-buffered saline (PBS), scrapped and stored at −80 °C until use. Total RNA from cells was isolated using TriReagent according to the manufacturer’s instructions (Biotech, Prague, Czech Republic). The purified RNA was dissolved in 40 µL of diethyl pyrocarbonate (DEPC)-treated water (0.01% DEPC in HPLC water, autoclaved) and stored at −80 °C. The measurement of absorbance at 260 and 280 nm using the NanoDrop ND-1000 UV–VIS Spectrophotometer (Thermo Fisher Scientific, Pardubice, Czech Republic) was used to determine RNA yields and purity. […] Fluorescence data were recorded at the end of each amplification step. Relative expression levels of the target genes were calculated as fold changes in triplicates for each group using the 2^−ΔΔCt method [28] by normalization to the geometric mean of the Ct values of Sdha and Ywhaz, which were used as reference genes.

PLIN2 mRNA = test: RT-qPCR mRNA expression in dHepaRG cells; assay type: cell-based, human; conditions: single exposure, the highest concentrations
Experimental: (§5) Three concentrations were selected for each compound (non-toxic, non-toxic/slightly toxic and toxic). The cholesterol level of the dHepaRG cells was measured after a multiple exposure of the highest non-toxic concentrations of tested compounds. […] The expression changes of genes and proteins related to cholesterol metabolism were measured in both single and multiple exposure experiments.
as §4

dHepaRG cells [1] = test: MTT cell viability assay; assay type: cell-based, human; conditions: for toxicity toward dHepaRG cells compared with cancer cells: comparison of own IC50 with previously reported IC50 values; for cell viability: 24 and 72 h, MTT method and LDH leakage
Experimental: (§2) Cryopreserved HepaRG cells were obtained from Biopredic International (Rennes, France). Undifferentiated cells were seeded according to the supplier protocols in 96-well plates for the viability assays, and in 6-well plates for the mRNA and western blot measurements. The cells were cultured for two weeks in Williams E Medium with GlutaMAX™ (Invitrogen, Paisley, UK) supplemented with 10% fetal bovine serum, 2 mM glutamine, 100 IU/mL penicillin, 100 μg/mL streptomycin, 5 μg/mL insulin, and 50 μM hydrocortisone hemisuccinate. The cells were afterwards cultured for another 2-week period in the same medium supplemented with 1.7% DMSO. The medium was replaced every 2–3 days.
In the 96-well plates, viability was evaluated using the methylthiazole-tetrazolium (MTT) colorimetric assay. After 24 and 72-h exposure, 25 μL of MTT solution (3 mg of MTT in 1 mL of phosphate buffered saline, PBS) were added to each well. The plates were incubated at 37 °C for an additional 2 h, after which the medium was removed and the formed formazan was dissolved in 50 μL of 0.08 M HCl in isopropanol during 30 min shaking. The absorbance in each well was read at 570 and 690 nm using a spectrophotometer (Tecan Infinite M200, Tecan, Männedorf, Switzerland).

G6PC mRNA = test: RT-qPCR mRNA expression in dHepaRG cells; assay type: cell-based, human; conditions: single exposure, also at other than toxic concentrations
Experimental: as §3, §4

GPAM mRNA = test: RT-qPCR mRNA expression in dHepaRG cells; assay type: cell-based, human; conditions: single exposure, 6, 12 and 24 h
Experimental: (§6) Three concentrations were selected for each compound (non-toxic, non-toxic/slightly toxic and toxic).
(§7) All treatments were performed in triplicates and every experiment was performed three times. The cells were washed twice with ice cold phosphate-buffered saline (PBS), scrapped and stored at −80 °C until use. Total RNA from cells was isolated using TriReagent according to the manufacturer’s instructions (Biotech, Prague, Czech Republic). The purified RNA was dissolved in 40 µL of diethyl pyrocarbonate (DEPC)-treated water (0.01% DEPC in HPLC water, autoclaved) and stored at −80 °C. The measurement of absorbance at 260 and 280 nm using the NanoDrop ND-1000 UV–VIS Spectrophotometer (Thermo Fisher Scientific, Pardubice, Czech Republic) was used to determine RNA yields and purity. Subsequently, the RNA (4 µg) was treated with 2 U of DNase I (New England Biolabs, Ipswich, MA, USA) in a final volume of 30 µL for 25 min at 37 °C, 1.5 µL of 0.1 M ethylenediaminetetraacetic acid was added and the DNAse was inactivated by heat (5 min at 75 °C). […] Fluorescence data were recorded at the end of each amplification step. Relative expression levels of the target genes were calculated as fold changes in triplicates for each group using the 2^−ΔΔCt method [28] by normalization to the geometric mean of the Ct values of Sdha and Ywhaz, which were used as reference genes.

dHepaRG cells [2] = test: ROS production (H2DCFDA probe); assay type: cell-based, human; conditions: for lowest measured concentration leading to oxidative stress: ROS production; for ROS production: various concentrations, 1, 6, 12 and 24 h, H2-DCFDA probe
Experimental: The production of reactive oxygen species (ROS) was measured using 2′,7′-dichlorofluorescin diacetate probe (H2DCFDA). The cells were preincubated with 10 µM H2DCFDA for 30 min in the dark. Afterwards, the cells were washed with PBS and sesquiterpenes were added to a Hank’s Balanced Salt Solution (HBSS) buffer. Fluorescence was measured after 1, 6, 12, and 24 h with excitation and emission wavelengths of 490 nm and 530 nm, respectively, using the Tecan Infinite M200. Hydrogen peroxide (300 µM) served as a positive control.

PLIN4 mRNA = test: RT-qPCR mRNA expression in dHepaRG cells; assay type: cell-based, human; conditions: single exposure, 6, 12 and 24 h
Experimental: as §5, §4

HepG2 = conditions: HepG2, 24 h, read-out: Previously Reported IC50 Values (24 h), cited from earlier work
MCF-7 = conditions: read-out: Previously Reported IC50 Values (24 h), cited from earlier work
TFRC mRNA = test: RT-qPCR mRNA expression in dHepaRG cells; assay type: cell-based, human; conditions: single exposure, also at other than toxic concentrations
Experimental: as §3, §4

dHepaRG cells [3] = test: Lactate dehydrogenase (LDH) leakage; assay type: cell-based, human; conditions: dHepaRG cell viability, read-out: IC50 ± SD, LDH
Experimental: as §2
Lactate dehydrogenase (LDH) leakage was measured using the Invitrogen™ CyQUANT™ LDH Cytotoxicity Assay Kit according to the manufacturer guidelines using 96-well plates. After 24 and 72-h exposure, the culture medium was collected and diluted ten times by distilled water. Fifty µL of reaction mixture was added to each sample well and mixed. After 30 min of incubation at room temperature, 50 µL of stop solution was added to each well. To determine LDH activity, 680-nm absorbance value (background) was subtracted from the 490-nm absorbance before calculation of % cytotoxicity. Cell lysate was set as 100% of the LDH leakage.

ACACB mRNA = test: RT-qPCR mRNA expression in dHepaRG cells; assay type: cell-based, human; conditions: single exposure, 6, 12 and 24 h
Experimental: as §6, §7

SCD mRNA = test: RT-qPCR mRNA expression in dHepaRG cells; assay type: cell-based, human; conditions: single exposure, 6, 12 and 24 h
Experimental: as §6, §7

CYP19A1 mRNA = test: RT-qPCR mRNA expression in dHepaRG cells; assay type: cell-based, human
Experimental: as §5
All treatments were performed in triplicates and every experiment was performed three times. The cells were washed twice with ice cold phosphate-buffered saline (PBS), scrapped and stored at −80 °C until use. Total RNA from cells was isolated using TriReagent according to the manufacturer’s instructions (Biotech, Prague, Czech Republic). The purified RNA was dissolved in 40 µL of diethyl pyrocarbonate (DEPC)-treated water (0.01% DEPC in HPLC water, autoclaved) and stored at −80 °C. The measurement of absorbance at 260 and 280 nm using the NanoDrop ND-1000 UV–VIS Spectrophotometer (Thermo Fisher Scientific, Pardubice, Czech Republic) was used to determine RNA yields and purity. Subsequently, the RNA (4 µg) was treated with 2 U of DNase I (New England Biolabs, Ipswich, MA, USA) in a final volume of 30 µL for 25 min at 37 °C, 1.5 µL of 0.1 M ethylenediaminetetraacetic acid was added and the DNAse was inactivated by heat (5 min at 75 °C). The solution was diluted to a concentration of 0.1 µg/µL. The DNAse treated RNA was stored at −80 °C until further analyses. The first strand cDNA was synthesized from 800 ng of total RNA and 1 µL of 50 µM random hexamers (Generi Biotech, Hradec Kralove, Czech Republic) using ProtoScript II reverse transcriptase (New England Biolabs, Ipswich, MA, USA). After the initial heat denaturation of total RNA (65 °C for 5 min), 4 µL of 5× ProtoScript II RT Reaction Buffer, 2 µL of 10× dithiothreitol (DTT), 2 µL of deoxynucleotide (dNTP) Mix 5 mM, 3.5 µL of H2O, and 0.5 µL of ProtoScript II 200 U/µL were added and mixed by pipetting. The reactions (20 µL) were incubated for 10 min at 25 °C, for 50 min at 42 °C, and for 5 min at 80 °C. The obtained cDNAs were diluted 1:6 by DEPC water. The qPCR analyses were carried out using QuantStudio 6 Flex (Applied Biosystems, Foster City, CA, USA) with SYBR green I (Xceed qPCR SG Mix, Institute of Applied Biotechnologies, Prague, Czech Republic) detection according to the manufacturer’s protocol. […] Fluorescence data were recorded at the end of each amplification step. Relative expression levels of the target genes were calculated as fold changes in triplicates for each group using the 2^−ΔΔCt method [28] by normalization to the geometric mean of the Ct values of Sdha and Ywhaz, which were used as reference genes.

U87 = conditions: U87, 24 h, read-out: Previously Reported IC50 Values (24 h), cited from earlier work
SREBP-1c mRNA = test: RT-qPCR mRNA expression in dHepaRG cells; assay type: cell-based, human
Experimental: as §6, §7

[4] = dHepaRG cell viability, 24 h single exposure, read-out: IC50 ± SD, MTT
[5] = dHepaRG cell viability, 72 h single exposure, read-out: IC50 ± SD, MTT
[6] = dHepaRG cells, 24-h treatment, read-out: half-maximal inhibitory concentration of cell viability (approximate)
[7] = the higher concentrations after 12 and 24-h exposure

| SMILES | RIP1 protein expression (RIP1; 12-h exposure) | PLIN2 mRNA (PLIN2 mRNA) | toxicity toward dHepaRG cells compared with cancer cells (dHepaRG cells [1]) | IC50 (dHepaRG cells [1]; [4]) | IC50 (dHepaRG cells [1]; [5]) | highest non-toxic concentration (dHepaRG cells [1]; dHepaRG cells) | IC50 (dHepaRG cells [1]; [6]) | cell viability (dHepaRG cells [1]; dHepaRG cells) | G6PC mRNA expression (G6PC mRNA) | GPAM mRNA level (GPAM mRNA) | lowest measured concentration leading to oxidative stress (dHepaRG cells [2]) | ROS production (dHepaRG cells [2]) | PLIN4 mRNA level (PLIN4 mRNA) | TFRC mRNA expression (TFRC mRNA) | IC50 (dHepaRG cells [3]; 24 h single exposure) | IC50 (dHepaRG cells [3]; 72 h single exposure) | ACACB mRNA level (ACACB mRNA) | SCD mRNA level (SCD mRNA) | other results |
| --- | --- | --- | --- | --- | --- | --- | --- | --- | --- | --- | --- | --- | --- | --- | --- | --- | --- | --- | --- |
| C=C1C(=O)O[C@@H]2C[C@@]3(C)CCC[C@H](C)C3=C[C@H]12 [ATL, alantolactone] | decreased level | induced | significantly lesser toxicity | 58.9 ± 3.5 µM | 57.2 ± 1 µM | 30 µM | ~60 µM | concentration-dependent decrease in the cell viability | dysregulated | significantly decreased | 20 µM | significant time- and concentration-dependent enhancement of ROS production | decreased | inhibited | 61.1 ± 1.8 µM | 57.8 ± 2 µM | significantly decreased | significantly decreased | phosphorylated p-STAT3(Y705) protein amount (p-STAT3(Y705); all concentrations tested): decreased; also recorded: inhibition; functional SREBP-2 (F) protein level (SREBP-2 (F); the highest concentration): significantly decreased; RIP1 protein expression (RIP1; 24-h exposure, highest concentration): decreased; ICAM-1 protein amount (ICAM-1; all concentrations after 12-h exposure): significantly decreased; NF-κB protein level (NF-κB; 24-h exposure, the highest concentration): significant decrease; ICAM-1 mRNA amount (ICAM-1 mRNA; 12-h and 24-h exposure): induced; IC50 (HepG2; ref 9): 33 µM; IC50 (HepG2; ref 35): 7 µM; IC50 (HepG2; ref 36): 30 µM; IC50 (MCF-7; MCF-7, 24 h): 36 µM; CYP19A1 mRNA level (CYP19A1 mRNA; 20 and 40 µM, all the studied intervals (6, 12, 24 h)): induced; IC50 (U87; ref 10): 20 µM; IC50 (U87; ref 34): 33 µM; SREBP-1c mRNA (SREBP-1c mRNA; single exposure, 6, 12 and 24 h): dysregulated |
| CC(C)=C1C/C=C(\C)CC/C=C(\C)CC1=O [GER, germacrone] | decreased level | induced | similar | 256 ± 5.7 µM | 242 ± 17.4 µM | 100 µM | ~250 µM | concentration-dependent decrease in the cell viability | dysregulated | significantly decreased | 100 µM | significant time- and concentration-dependent enhancement of ROS production | no significant change | inhibited | 244 ± 15.5 µM | 234 ± 13.4 µM | significantly decreased | significantly decreased | phosphorylated p-STAT3(Y705) protein amount (p-STAT3(Y705); both higher concentrations): decreased; p-STAT3 (Y705) phosphorylation (p-STAT3(Y705); [7]): inhibition; functional SREBP-2 (F) protein level (SREBP-2 (F); 12-h exposure): increase; functional SREBP-2 (F) protein level (SREBP-2 (F); 24-h exposure): no change in protein level; ICAM-1 protein amount (ICAM-1; [7]): significantly decreased; NF-κB protein level (NF-κB; 12-h exposure): decreased level; ICAM-1 mRNA amount (ICAM-1 mRNA; 6-h and 12-h exposure): induced; IC50 (HepG2; ref 7): 170 µM; IC50 (HepG2; ref 12): 160 µM; IC50 (HepG2; ref 13): > 240 µM; IC50 (MCF-7; MCF7, 24 h, ref 11): 195 µM; IC50 (MCF-7; MCF7, 24 h, ref 37): > 200 µM; CYP19A1 mRNA level (CYP19A1 mRNA; 100 µM, 24-h exposure): induced the level by nearly two-fold; also recorded: significantly induced; CYP19A1 mRNA level (CYP19A1 mRNA; both higher concentrations, 6- and 12-hour exposure): decreased; IC50 (U87; ref 36): 175 µM; SREBP-1c mRNA (SREBP-1c mRNA; single exposure, toxic concentration after 24 h): inhibited |
